Measurements as given in US12629390B2, “Stabilized amorphous calcium carbonate for treatment of neurological, muscular and infertility diseases or conditions” (AMORPHICAL LTD., priority 2016, dated 2026).

Tests used:
mice embryos = assay: in vitro embryo development in Quinn's Advantage cleavage media; type: cell-based
Procedure: CBA male mice were bred with BL C57 female mice. The mice were kept on a 12 hours photoperiod schedule with unlimited water and food supply. About 6 to 8 weeks after receiving offspring, each female mouse was injected IP with 5IU of pregnant mare serum gonadotropin (PMSG).
After 48 hours each female mouse was injected IP with 5IU human chorionic gonadotropin (hCG). Male mice proven to be fertile were then put together with the superovulated females. The next morning the female mice were examined for the presence of copulatory plugs. Females that had copulatory plugs were euthanized after 24 hours (approximately 36 hours post-coitus) and embryos at 2 cell stage were retrieved from the oviducts as following: the oviducts were dissected in Quinn's Advantage cleavage media (SAGE, Origio, Denmark) and the embryos were transferred to 20 μL drops with Quinn's Advantage cleavage media (SAGE, Origio, Denmark) overlaid with mineral oil and cultured at 37.0° C. under 5% CO2 and atmospheric oxygen. The collected embryos continued to grow, i.e. in-vitro culture (IVC), until blastocyst/hatching stage. To test the effect of amorphous calcium carbonate, the Quinn's Advantage cleavage media (“cleavage media” hereinafter) was supplemented with different additives, i.e. amorphous calcium carbonate stabilized by polyphosphate (ACC-PP), crystalline calcium carbonate (CCC), polyphosphate (PP), phosphoserine (PS) or sodium carbonate ([…]). All supplements were added as a freshly prepared suspension; the preparation of the ACC supplements were performed under aseptic conditions. Untreated cleavage media (without addition of any additive) was used as a control (identified as Cont Q). The embryos were evaluated every day by microscope observation for a detection of the following stages: 2 cells, compactions stage, blastocysts formation and hatching stage. The fraction (in percent) of the embryos reached each stage was calculated (the number of 2 cells embryos was set as 100%).

mdx cell line = assay: myotube formation, CK activity and contraction in mdx cell line; type: cell-based, mice; settings: final Ca2+ 2 mM in Fusion Medium
Procedure: Cells from the Mdx cell line were seeded in a Gelatin coated 12 wells culture plate, 3×10^4 cells/well containing 1 mL of Proliferation Medium. Two days later (˜66% confluence), the medium was changed to Fusion Medium which was changed twice a week. The various calcium preparations were separately added to the Fusion Medium according to the treatment described in Table 3. Cultures were enriched with the various calcium preparations, at Ca^2+ concentration of 1 mM. Since the medium already contained 1 mM of calcium ions, then the final concentration of Ca2+ was of 2 mM.
The effects of the tested calcium preparations on cell proliferation, fusion to form myotubes and muscle contraction were monitored by daily phase contrast microscopic observation. At predetermined days, cultures were fixed in methanol for 20 minutes and then stained with Giemsa in order to evaluate the number of myotubes formed with time in cultures.
At predetermined days, cells were collected from culture wells (using a rubber policeman) and kept in 1 mL PBS (without Ca^2+) at −70° C. until analyzed. For CK measurement cell samples were thawed and physically lysed using a sonicator, to release the CK from muscle myotubes. CK concentration was determined using Creatine Kinase Activity Assay Kit (CK-NAC REAGENT SET, CURTISS, CHEM-INDEX INC, Hialeah, FL, USA).

[1] = tested on: spinal cord-dorsal root ganglia (SC-DRG) slices; assay: nerve fiber sprouting from SC-DRG co-cultures; type: cell-based, rat; settings: calcium preparation at Ca2+ 2 mM; after 4 days of cultivation; portion of explants (out of 6)
Procedure: Neural and Vascular Reconstruction Gel ([…] Labs proprietary) is composed of two main components: high molecular hyaluronic acid (HA, 3×10^6 Da, BTG, Israel) and laminin (Sigma). […] The gel has the texture of a viscous liquid, it adheres easily and successfully the embedded cells or explants to the plastic or glass substratum, and enabled nerve fiber outgrowth in a 3D pattern. All the experiments were carried out and authorized by the local ethics committee recognized by the Israeli authorities for animal experimentation. Stationary organotypic cultures of dorsal root ganglia (DRG) and spinal cord (SC) as well as cultures of dissociated brain cells were prepared from rat fetuses (15 days of gestation, Lewis inbred, Harlan, Israel). Immediately after dissection, the isolated tissues were cut with a […] tissue chopper into small slices (of 400 μm thickness). In these studies, two tissue culture strategies were used. […] In the second method, the tissue slices were further dissociated with a trypsin-EDTA solution for 30 min, and washed with a culture medium. Subsequently, the dissociated cells were added to a suspension of chitosan powder or gastrolith powder (micro carriers, MCs) and incubated in suspension at 37° C. for 4 days. […] Calcium source were as following: ACC-Etidronic Acid (ACC-ET) (fresh suspension); ACC-Phosphoserine (ACC-PS) (fresh suspension); Gastrolith (dissolved with 0.1 M HCl and then neutralized with NaOH 1M); gastrolith powder; […] The cultures were monitored by daily phase contrast microscopic observations starting from 24 hours after setting the cultures onward. Suspensions of fresh ACC preparations consisted of particles forming a stable suspension. The gastrolith is a natural ACC isolated from crabs, and can be purchased only as a dry powder. In this form, its other characteristic components (such as calcium ions and proteins) are not available to the cells. In order to increase their bioavailability, the gastrolith powder was dissolved in 0.1 M HCl (which mimics the acidity which exists in the stomach) and then neutralized with 1M NaOH. […] The specimens were then incubated with rabbit anti-neurofilament antibodies (NF, Novus Biologicals, 1:500) to visualize the neurite outgrowth. […] Finally, the samples were rinsed again with wash buffer, and mounted with mounting medium (Immco Diagnostic, USA).

[2] = Example 9 Test A, 1.7 mM in cleavage media
[3] = Example 9 Test B, 1.7 mM CaCl2 or ACC-PP in cleavage media
[4] = Example 10, 1.7 mM CaCl2 or ACC-PP in cleavage media
[5] = Example 11, 1.7 mM in cleavage media
[6] = Example 12, mouse 1, embryos grown separately, 1.7 mM in cleavage media
[7] = Example 12, mouse 2, embryos grown separately, 1.7 mM in cleavage media
[8] = Example 12, mouse 3, embryos grown separately, 1.7 mM in cleavage media
[9] = Example 12, mouse 4, embryos grown separately, 1.7 mM in cleavage media
[10] = Example 16, pooled embryos, 1.7 mM in cleavage media

[Ca+2].[Cl-].[Cl-] [CaCl2, calcium chloride]
Blast/d3: number of embryos (mice embryos; [2]): 16
Blast/d3: portion of the initial number of embryos (mice embryos; [2]): 64%
Comp/d2: portion of the initial number of embryos (mice embryos; [2]): 64%
comp/d2: number of embryos (mice embryos; [2]): 16
Blast/d3: number of embryos (mice embryos; [3]): 20
Blast/d3: portion of the initial number of embryos (mice embryos; [3]): 74%
Comp/d2: portion of the initial number of embryos (mice embryos; [3]): 70%
Hatch/d4: number of embryos (mice embryos; [3]): 11
Hatch/d4: portion of the initial number of embryos (mice embryos; [3]): 40.7%
comp/d2: number of embryos (mice embryos; [3]): 20
Blast/d3: number of embryos (mice embryos; [4]): 8
Blast/d3: portion of the initial number of embryos (mice embryos; [4]): 80%
Comp/d2: portion of the initial number of embryos (mice embryos; [4]): 30%
Hatch/d4: number of embryos (mice embryos; [4]): 3
Hatch/d4: portion of the initial number of embryos (mice embryos; [4]): 30%
comp/d2: number of embryos (mice embryos; [4]): 3
Blast/d3: number of embryos (mice embryos; [5]): 24
Blast/d3: portion of the initial number of embryos (mice embryos; [5]): 80%
Comp/d2: portion of the initial number of embryos (mice embryos; [5]): 53.3%
Hatch/d4: number of embryos (mice embryos; [5]): 13
Hatch/d4: portion of the initial number of embryos (mice embryos; [5]): 43.3%
comp/d2: number of embryos (mice embryos; [5]): 16
2Cell/d1: number of embryos (mice embryos; [6]): 3
8Cell/d2: number of embryos (mice embryos; [6]): 2
Blast/d3: number of embryos (mice embryos; [6]): 1
Blast/d3: portion of the initial number of embryos (mice embryos; [6]): 8.3%
Hatch/d4: number of embryos (mice embryos; [6]): 0 (0)
Hatch/d4: portion of the initial number of embryos (mice embryos; [6]): 0 (0) %
comp/d2: number of embryos (mice embryos; [6]): 1
irreg/d1: number of embryos (mice embryos; [6]): 9
2Cell/d1: number of embryos (mice embryos; [7]): 3
8Cell/d2: number of embryos (mice embryos; [7]): 0
Blast/d3: number of embryos (mice embryos; [7]): 2
Blast/d3: portion of the initial number of embryos (mice embryos; [7]): 22.2%
Hatch/d4: number of embryos (mice embryos; [7]): 0 (0)
Hatch/d4: portion of the initial number of embryos (mice embryos; [7]): 0 (0) %
comp/d2: number of embryos (mice embryos; [7]): 3
irreg/d1: number of embryos (mice embryos; [7]): 6
2Cell/d1: number of embryos (mice embryos; [8]): 7
8Cell/d2: number of embryos (mice embryos; [8]): 0
Blast/d3: number of embryos (mice embryos; [8]): 5
Blast/d3: portion of the initial number of embryos (mice embryos; [8]): 50%
Hatch/d4: number of embryos (mice embryos; [8]): 3
Hatch/d4: portion of the initial number of embryos (mice embryos; [8]): 30%
comp/d2: number of embryos (mice embryos; [8]): 6
irreg/d1: number of embryos (mice embryos; [8]): 3
2Cell/d1: number of embryos (mice embryos; [9]): 14
8Cell/d2: number of embryos (mice embryos; [9]): 4
Blast/d3: number of embryos (mice embryos; [9]): 12
Blast/d3: portion of the initial number of embryos (mice embryos; [9]): 66.7%
Hatch/d4: number of embryos (mice embryos; [9]): 7
Hatch/d4: portion of the initial number of embryos (mice embryos; [9]): 41.2%
comp/d2: number of embryos (mice embryos; [9]): 10
irreg/d1: number of embryos (mice embryos; [9]): 4
effect on embryonic development (percentages of blastocysts and hatched blastocysts) (mice embryos; Example 16, 1.7 mM in cleavage media): negative effect
8 cell/d2: number of embryos (mice embryos; [10]): 6
Blast/d3: number of embryos (mice embryos; [10]): 10
Blast/d3: portion of the initial number of embryos (mice embryos; [10]): 90.90%
Hatch/d4: number of embryos (mice embryos; [10]): 4
Hatch/d4: portion of the initial number of embryos (mice embryos; [10]): 36.36%
comp/d2: number of embryos (mice embryos; [10]): 5
muscle contractions observed, day after seeding (mdx cell line): ≥ 10 days
Cultures with axonal regeneration (%) [1]: 50%
